# Measured values reported in publication PMC4619619, “Diversity of Active States in TMT Opsins” (PLoS ONE, 2015).
# Experiments:
# [1] = biological target: T1, medaka TMT1A opsin (C-terminally truncated) (Oryzias latipes, UniProt R9R6D2); assay: UV-visible spectroscopy; HPLC of chromophore; type: binding; conditions: covalent (Schiff base); formed in situ by orange light (>540 nm) from the all-trans state; 0 °C
# T1 construct: gene tmtops1a; C-terminal 63 residues deleted; C-terminal rho1D4 tag (ETSQVAPA) kept; HEK293T, pMT4; purified in dodecyl maltoside, also membranes; cDNA cloned from medaka brain
# T1 sequence (R9R6D2 1-342): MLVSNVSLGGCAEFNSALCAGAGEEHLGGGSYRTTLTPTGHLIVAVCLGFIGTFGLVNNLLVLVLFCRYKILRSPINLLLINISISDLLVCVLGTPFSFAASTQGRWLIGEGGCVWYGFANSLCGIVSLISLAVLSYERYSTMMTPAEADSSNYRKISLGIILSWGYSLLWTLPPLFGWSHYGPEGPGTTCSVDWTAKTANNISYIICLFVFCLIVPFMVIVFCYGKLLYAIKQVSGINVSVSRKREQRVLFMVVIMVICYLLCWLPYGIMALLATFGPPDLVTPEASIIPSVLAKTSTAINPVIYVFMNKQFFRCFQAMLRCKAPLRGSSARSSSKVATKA
# [2] = biological target: T2, medaka TMT2 opsin (Oryzias latipes, UniProt R9R6C6); assay: UV-visible spectroscopy; HPLC of chromophore; type: binding; conditions: covalent (Schiff base); reconstituted pigment in the dark; 0 °C, pH 6.5, 0.02% dodecyl maltoside
# T2 construct: gene tmtops2; full length; C-terminal rho1D4 tag (ETSQVAPA) kept; HEK293T, pMT4; partially purified in dodecyl maltoside, also membranes; cDNA cloned from medaka brain
# T2 sequence (R9R6C6 1-355): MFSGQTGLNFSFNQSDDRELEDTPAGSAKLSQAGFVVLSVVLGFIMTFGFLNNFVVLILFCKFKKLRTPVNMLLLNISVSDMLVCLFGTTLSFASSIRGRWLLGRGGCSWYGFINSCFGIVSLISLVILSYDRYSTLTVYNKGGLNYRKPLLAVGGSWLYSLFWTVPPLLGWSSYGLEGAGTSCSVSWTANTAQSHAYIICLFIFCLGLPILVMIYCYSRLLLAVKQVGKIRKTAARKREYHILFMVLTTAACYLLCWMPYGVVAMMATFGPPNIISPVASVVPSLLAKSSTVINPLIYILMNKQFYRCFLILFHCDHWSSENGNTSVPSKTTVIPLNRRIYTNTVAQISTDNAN
# [3] = biological target: T3, full-length TMT1A opsin (Oryzias latipes, UniProt R9R6D2); assay: UV-visible spectroscopy; type: binding; conditions: covalent (Schiff base); reconstituted pigment
# T3 construct: gene tmtops1a; full length; C-terminal rho1D4 tag (ETSQVAPA) kept; HEK293T, pMT4; purified
# T3 sequence (R9R6D2 1-405): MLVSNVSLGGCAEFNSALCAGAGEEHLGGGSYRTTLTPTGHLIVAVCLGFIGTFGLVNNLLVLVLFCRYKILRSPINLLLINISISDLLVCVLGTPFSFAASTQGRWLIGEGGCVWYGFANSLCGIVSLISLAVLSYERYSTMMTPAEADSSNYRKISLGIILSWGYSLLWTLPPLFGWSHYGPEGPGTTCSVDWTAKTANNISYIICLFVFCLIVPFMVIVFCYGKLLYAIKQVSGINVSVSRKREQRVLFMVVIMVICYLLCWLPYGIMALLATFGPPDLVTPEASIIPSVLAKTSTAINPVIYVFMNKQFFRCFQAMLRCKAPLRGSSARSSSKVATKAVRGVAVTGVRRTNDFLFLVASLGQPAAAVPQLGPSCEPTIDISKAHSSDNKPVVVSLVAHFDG
# [4] = biological target: T4, medaka TMT1A opsin (C-terminally truncated) (Oryzias latipes, UniProt R9R6D2, T190S); assay: UV-visible spectroscopy before and after irradiation; type: binding; conditions: covalent (Schiff base); 0 °C; bovine rhodopsin numbering; truncation of mutant not stated
# T4 construct: gene tmtops1a; C-terminal 63 residues deleted; C-terminal rho1D4 tag (ETSQVAPA) kept; HEK293T, pMT4; purified in dodecyl maltoside, also membranes; cDNA cloned from medaka brain
# T4 sequence (R9R6D2 entry or part of it T190S): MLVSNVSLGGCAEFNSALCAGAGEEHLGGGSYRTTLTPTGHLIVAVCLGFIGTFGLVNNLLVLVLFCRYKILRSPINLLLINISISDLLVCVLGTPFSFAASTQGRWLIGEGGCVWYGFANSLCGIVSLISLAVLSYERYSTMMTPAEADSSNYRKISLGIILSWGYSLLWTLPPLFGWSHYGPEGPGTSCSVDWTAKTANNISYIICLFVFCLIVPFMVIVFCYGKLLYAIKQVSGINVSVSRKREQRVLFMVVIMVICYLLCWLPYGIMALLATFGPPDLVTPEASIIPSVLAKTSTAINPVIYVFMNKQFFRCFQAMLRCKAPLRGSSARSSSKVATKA
# [5] = biological target: T1, medaka TMT1A opsin (C-terminally truncated); assay: UV-visible spectroscopy; HPLC of chromophore; GTPγS exchange with Gi and Go; type: biochemical; conditions: covalent (protonated Schiff base); agonist; formed in situ by blue light (460 nm); 0 °C
# [6] = biological target: T2, medaka TMT2 opsin; assay: UV-visible spectroscopy; acid denaturation; HPLC; GTPγS exchange with Gi and Go; type: biochemical; conditions: covalent (unprotonated Schiff base); agonist; formed in situ by blue light (460 nm); 0 °C
smiles,measurement,setting,value
CC1=C(\C=C/C(C)=C/C=C/C(C)=C/C=O)C(C)(C)CCC1 [7-cis-retinal],UV-visible spectroscopy; HPLC of chromophore,[1],showed the formation of products having 9-cis and 7-cis forms (Fig 2E)
CC1=C(/C=C/C(C)=C\C=C\C(C)=C\C=O)C(C)(C)CCC1 [9-cis-retinal],UV-visible spectroscopy; HPLC of chromophore,[1],showed the formation of products having 9-cis and 7-cis forms (Fig 2E)
CC1=C(/C=C/C(C)=C/C=C\C(C)=C\C=O)C(C)(C)CCC1 [11-cis-retinal],UV-visible spectroscopy; HPLC of chromophore,[2],partially purified pigment of TMT2 opsin after reconstitution with 11-cis-retinal
same,UV-visible spectroscopy,[3],Full-length pigment was formed after reconstitution with 11-cis-retinal
same,UV-visible spectroscopy before and after irradiation,[4],We then constructed a single mutant (T186S) of TMT1A opsin
CC1=C(/C=C/C(C)=C/C=C/C(C)=C/C=O)C(C)(C)CCC1 [all-trans-retinal],UV-visible spectroscopy; HPLC of chromophore; GTPγS exchange with Gi and Go,[5],indicating that the all-trans product is a G protein-activating state
same,UV-visible spectroscopy; acid denaturation; HPLC; GTPγS exchange with Gi and Go,[6],indicating that the all-trans product was the G protein-activating state of TMT2 opsin
